Laboratory results published in publication PMC8667612 (Journal of medicinal chemistry, 2021).
Where “and” joins values, the source holds several entries; their conditions need not be identical. Identical values can stand only once.

Assays:
[1] = target: T1, N. fowleri CYP51 (Naegleria fowleri, UniProt A0A6A5BCR7, E4K/I5A/S2A, form not given); conditions: read-out: IC50 (1 h reaction)
[2] = target: T1, N. fowleri CYP51; type: biochemical; conditions: 0.5 μM P450, 60 s at 37 °C, sterol 3–50 μM

Compound	IC50 [1]	Km [2]
O=C(N[C@@H](Cn1ccnc1)c1ccc(-c2ccc(F)cc2)cc1F)c1ccc(-c2nnc(-c3ccccc3)o2)cc1 [VFV, (R)-N-(1-(3,4’-difluoro-[1,1’-biphenyl]-4-yl)-2-(1H-imidazol-1-yl)-ethyl)-4-(5-phenyl-1,3,4-oxadiazol-2-yl)benzamide]	0.68 µM	
O=C(N[C@@H](Cn1ccnc1)c1ccc(-c2ccc(F)cc2)cc1Cl)c1ccc(-c2nnc(-c3ccccc3)o2)cc1 [VFV-Cl, (R)-N-(1-(3-chloro-4’-fluoro-[1,1’-biphenyl]-4-yl)-2-(1H-imidazol-1-yl)ethyl)-4-(5-phenyl-1,3,4-oxadiazol-2-yl)benzamide]	5.9 µM and 5.94 µM	
C[C@@H](c1nc(-c2ccc(C#N)cc2)cs1)[C@](O)(Cn1cncn1)c1cc(F)ccc1F [isavuconazole, reference compound]	0.96 µM	
CC(C)=CCC[C@@H](C)[C@H]1CC[C@@]2(C)C3=C(CC[C@]12C)[C@@]1(C)CC[C@H](O)C(C)(C)[C@@H]1CC3 [lanosterol]		48 ± 10 µM
C=C(CC[C@@H](C)[C@H]1CC[C@@]2(C)C3=C(CC[C@]12C)[C@@]1(C)CC[C@H](O)[C@@H](C)[C@@H]1CC3)C(C)C [obtusifoliol]		8 ± 1 µM
